Measured values as given in patent US20250171438A1 (Agios Pharmaceuticals, Inc., priority 2022, published 2025).

What follows are compounds tested against T1, human PAH with the R408W mutation (Homo sapiens, UniProt P00439, R408W) (assay: Cell Based Phenylalanine Flux Assay). Conditions: A375 cells expressing human R408W PAH; 24 hrs compound incubation; 13C-Tyrosine by LC-MS; average where tested multiple times; read-out: AC50.
T1 construct: expressed in transfected cells
T1 sequence (P00439 1-452 R408W): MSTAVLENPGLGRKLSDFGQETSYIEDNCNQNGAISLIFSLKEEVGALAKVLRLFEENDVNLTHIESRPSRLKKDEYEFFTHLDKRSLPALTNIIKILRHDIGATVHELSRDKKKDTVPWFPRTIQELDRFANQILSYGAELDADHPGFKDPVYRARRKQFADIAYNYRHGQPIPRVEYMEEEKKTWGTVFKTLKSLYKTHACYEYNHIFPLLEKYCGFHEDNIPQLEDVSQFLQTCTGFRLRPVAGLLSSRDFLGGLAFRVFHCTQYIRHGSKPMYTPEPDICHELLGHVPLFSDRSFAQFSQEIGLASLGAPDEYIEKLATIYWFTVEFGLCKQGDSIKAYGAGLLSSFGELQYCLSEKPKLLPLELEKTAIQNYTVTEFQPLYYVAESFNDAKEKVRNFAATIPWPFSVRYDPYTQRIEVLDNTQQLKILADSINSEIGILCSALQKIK

Compared with `O=C(c1ocnc1C(F)F)N1CCc2[nH]cnc2[C@@H]1c1nc2c(F)cccc2s1` [Example 1616, (R)-(4-(difluoromethyl)oxazol-5-yl)(4-(4-fluorobenzo[d]thiazol-2-yl)-6,7-dihydro-1H-imidazo[4,5-c]pyridin-5(4H)-yl)methanone], `Cn1cc(C(=O)N2CCc3[nH]cnc3[C@@H]2c2nc3c(F)cccc3s2)c(C(F)F)n1` [Example 1842, (R)-(3-(difluoromethyl)-1-methyl-1H-pyrazol-4-yl)(4-(4-fluorobenzo[d]thiazol-2-yl)-6,7-dihydro-1H-imidazo[4,5-c]pyridin-5(4H)-yl)methanone] is higher in AC50: 500 to 1000 nM for the first, 1000 to 5000 nM for the second.

`O=C(c1cnc(-c2ccc(C(F)(F)F)nc2)s1)N1CCc2[nH]cnc2[C@@H]1c1nc2ccccc2s1` [Example 1355, (R)-(4-(benzo[d]thiazol-2-yl)-6,7-dihydro-1H-imidazo[4,5-c]pyridin-5(4H)-yl)(2-(6-(trifluoromethyl)pyridin-3-yl)thiazol-5-yl)methanone] and `O=C(c1cnc(Cc2ccccc2)s1)N1CCc2[nH]cnc2[C@H]1c1nc2ccccc2s1` [Example 1227] fall in the same range of AC50: 1000 to 5000 nM for the first, 1000 to 5000 nM for the second.

First: Cc1ccc(-c2nnc(C(=O)N3CCc4[nH]cnc4[C@H]3c3nc4c(F)cccc4s3)o2)nc1 [Example 1904, (S)-(4-(4-fluorobenzo[d]thiazol-2-yl)-6,7-dihydro-1H-imidazo[4,5-c]pyridin-5(4H)-yl)(5-(5-methylpyridin-2-yl)-1,3,4-oxadiazol-2-yl)methanone]
Second: Cc1ccc(-c2nnc(C(=O)N3CCc4[nH]cnc4[C@@H]3c3nc4ccccc4s3)o2)nc1 [Example 1879, (R)-(4-(benzo[d]thiazol-2-yl)-6,7-dihydro-1H-imidazo[4,5-c]pyridin-5(4H)-yl)(5-(5-methylpyridin-2-yl)-1,3,4-oxadiazol-2-yl)methanone]
The AC50 of the first is lower: under 500 nM for the first, 1000 to 5000 nM for the second.

`CN(C)Cc1ccc2c(C(=O)N3CCc4[nH]cnc4[C@H]3c3nc4ccccc4s3)cnn2c1` [Example 1311] and `CN(C)Cc1ccc2c(C(=O)N3CCc4[nH]cnc4[C@H]3c3nc4c(F)cccc4s3)cnn2c1` [Example 1619, (S)-(6-((dimethylamino)methyl)pyrazolo[1,5-a]pyridin-3-yl)(4-(4-fluorobenzo[d]thiazol-2-yl)-6,7-dihydro-1H-imidazo[4,5-c]pyridin-5(4H)-yl)methanone] fall in the same range of AC50: 500 to 1000 nM for the first, 500 to 1000 nM for the second.

First: CC(C)(F)c1nnc(C(=O)N2CCc3[nH]cnc3[C@@H]2c2nc3ccccc3s2)o1 [Example 1833, (R)-(4-(benzo[d]thiazol-2-yl)-6,7-dihydro-1H-imidazo[4,5-c]pyridin-5(4H)-yl)(5-(2-fluoropropan-2-yl)-1,3,4-oxadiazol-2-yl)methanone]
Second: CC(C)(F)c1nnc(C(=O)N2CCc3[nH]cnc3[C@H]2c2nc3c(F)cccc3s2)o1 [Example 1836, (S)-(4-(4-fluorobenzo[d]thiazol-2-yl)-6,7-dihydro-1H-imidazo[4,5-c]pyridin-5(4H)-yl)(5-(2-fluoropropan-2-yl)-1,3,4-oxadiazol-2-yl)methanone]
The AC50 of the first is higher: 1000 to 5000 nM for the first, under 500 nM for the second.

First: CC(C)(O)c1ncc(C(=O)N2CCc3[nH]cnc3[C@@H]2c2nc3c(F)cccc3s2)s1 [Example 1478, (R)-(4-(4-fluorobenzo[d]thiazol-2-yl)-6,7-dihydro-1H-imidazo[4,5-c]pyridin-5(4H)-yl)(2-(2-hydroxypropan-2-yl)thiazol-5-yl)methanone]
Second: O=C(c1ncn2ccccc12)N1CCc2[nH]cnc2[C@H]1c1nc2c(F)cccc2s1 [Example 1143, (S)-(4-(4-fluorobenzo[d]thiazol-2-yl)-6,7-dihydro-1H-imidazo[4,5-c]pyridin-5(4H)-yl)(imidazo[1,5-a]pyridin-1-yl)methanone]
The AC50 of the first is higher: 1000 to 5000 nM for the first, 500 to 1000 nM for the second.

Compared with `O=C(CCC1CC1)N1CCc2[nH]cnc2[C@H]1c1nc2ccc(Cl)cc2[nH]1` [Example 939, (S)-1-(4-(6-chloro-1H-benzo[d]imidazol-2-yl)-6,7-dihydro-1H-imidazo[4,5-c]pyridin-5(4H)-yl)-3-cyclopropylpropan-1-one], `O=C(CCC1CC1)N1CCc2[nH]cnc2[C@@H]1c1nc2ccc(Cl)cc2[nH]1` [Example 938, (R)-1-(4-(6-chloro-1H-benzo[d]imidazol-2-yl)-6,7-dihydro-1H-imidazo[4,5-c]pyridin-5(4H)-yl)-3-cyclopropylpropan-1-one] is higher in AC50: under 500 nM for the first, 1000 to 5000 nM for the second.

First: O=C(c1cnn2c(Br)cccc12)N1CCc2[nH]cnc2[C@H]1c1nc2ccc(F)cc2s1 [Example 1149]
Second: O=C(c1nc2ccccc2o1)N1CCc2[nH]cnc2[C@@H]1c1nc2ccccc2s1 [Example 1130, (R)-benzo[d]oxazol-2-yl(4-(benzo[d]thiazol-2-yl)-1,4,6,7-tetrahydro-5H-imidazo[4,5-c]pyridin-5-yl)methanone]
The AC50 of the first is lower: under 500 nM for the first, 1000 to 5000 nM for the second.

First: CN1CCN(c2nc(C(F)(F)F)c(C(=O)N3CCc4[nH]cnc4[C@@H]3c3nc4ccccc4s3)o2)CC1 [Example 1574, (R)-(4-(benzo[d]thiazol-2-yl)-6,7-dihydro-1H-imidazo[4,5-c]pyridin-5(4H)-yl)(2-(4-methylpiperazin-1-yl)-4-(trifluoromethyl)oxazol-5-yl)methanone]
Second: O=C(c1oc(N2CCOCC2)nc1C(F)(F)F)N1CCCc2[nH]cnc2[C@@H]1c1nc2ccccc2s1 [Example 2134, (R)-(4-(benzo[d]thiazol-2-yl)-7,8-dihydroimidazo[4,5-c]azepin-5(1H,4H,6H)-yl)(2-morpholino-4-(trifluoromethyl)oxazol-5-yl)methanone]
The AC50 of the first is lower: under 500 nM for the first, 1000 to 5000 nM for the second.

First: Nc1cc(C(=O)N2CCc3[nH]cnc3[C@H]2c2nc3c(F)cccc3s2)n(C(F)F)n1 [Example 2053, (S)-(3-amino-1-(difluoromethyl)-1H-pyrazol-5-yl)(4-(4-fluorobenzo[d]thiazol-2-yl)-6,7-dihydro-1H-imidazo[4,5-c]pyridin-5(4H)-yl)methanone]
Second: O=C(c1nnc(-c2cnn(C(F)F)c2)o1)N1CCc2[nH]cnc2[C@H]1c1nc2c(F)cccc2s1 [Example 1824, (S)-(5-(1-(difluoromethyl)-1H-pyrazol-4-yl)-1,3,4-oxadiazol-2-yl)(4-(4-fluorobenzo[d]thiazol-2-yl)-6,7-dihydro-1H-imidazo[4,5-c]pyridin-5(4H)-yl)methanone]
The AC50 of the first is higher: 500 to 1000 nM for the first, under 500 nM for the second.

Compared with `[2H][C@@]1(c2nc3ccccc3s2)c2nc[nH]c2CCN1C(=O)c1cnc(-c2cnn(C)c2)s1` [Example 2157, [(4S)-4-(1,3-benzothiazol-2-yl)-4-deuterio-6,7-dihydro-1H-imidazo[4,5-c]pyridin-5-yl]-[2-(1-methylpyrazol-4-yl)thiazol-5-yl]methanone], `O=C(c1ncc(Cl)s1)N1CCc2[nH]cnc2[C@@H]1c1nc2ccccc2s1` [Example 1054, (R)-(4-(benzo[d]thiazol-2-yl)-6,7-dihydro-1H-imidazo[4,5-c]pyridin-5(4H)-yl)(5-chlorothiazol-2-yl)methanone] is higher in AC50: under 500 nM for the first, 1000 to 5000 nM for the second.

First: O=C(CCc1nc(Cl)cs1)N1CCc2[nH]cnc2[C@H]1c1nc2ccccc2s1 [Example 1023]
Second: O=C(CCc1nnc(Br)s1)N1CCc2[nH]cnc2[C@@H]1c1nc2ccccc2s1 [Example 1090, (R)-1-(4-(benzo[d]thiazol-2-yl)-6,7-dihydro-1H-imidazo[4,5-c]pyridin-5(4H)-yl)-3-(5-bromo-1,3,4-thiadiazol-2-yl)propan-1-one]
The AC50 of the first is lower: 500 to 1000 nM for the first, over 5000 nM for the second.

First: O=C(c1oc(/C=C/C2CC2)nc1C(F)(F)F)N1CCc2[nH]cnc2[C@H]1c1nc2ccccc2s1 [Example 1567]
Second: O=C(Cc1nccs1)N1CCc2[nH]cnc2[C@@H]1c1nc2ccccc2s1 [Example 1038, (R)-1-(4-(benzo[d]thiazol-2-yl)-6,7-dihydro-1H-imidazo[4,5-c]pyridin-5(4H)-yl)-2-(thiazol-2-yl)ethenone]
The AC50 of the first is lower: 500 to 1000 nM for the first, over 5000 nM for the second.

For `O=C(CCC1CC1)N1CCc2[nH]cnc2[C@H]1c1nc2ccc(F)cc2[nH]1` [Example 962, (S)-3-cyclopropyl-1-(4-(6-fluoro-1H-benzo[d]imidazol-2-yl)-6,7-dihydro-1H-imidazo[4,5-c]pyridin-5(4H)-yl)propan-1-one], the AC50 was under 500 nM.

Same assay, conditions: A375 cells expressing human R408W PAH; 24 hrs with compound; 13C-Tyrosine by LC-MS; average where tested multiple times; read-out: AC50

Compared with `CC1CN(C(=O)c2cnc(N3CCOCC3)o2)C(c2nc3ccccc3s2)c2nc[nH]c21` (stereo not shown), `Cc1nc(CCC2CC2)oc1C(=O)N1CCCc2[nH]cnc2C1c1nc2ccccc2s1` (stereo not shown) is higher in AC50: 1000 to 5000 nM for the first, over 5000 nM for the second.

`Cc1noc(C(=O)N2CCc3[nH]cnc3[C@@H]2c2nc3ccccc3s2)n1` (single isomer, unassigned) and `Cc1nnc(CC(=O)N2CCc3[nH]cnc3C2c2nc3ccccc3s2)o1` (stereo not shown) cannot be ordered by AC50: over 5000 nM for the first, over 5000 nM for the second.

Compared with `[2H]C([2H])([2H])OCc1cc(C(=O)N2CCc3[nH]cnc3C2c2nc3c(F)cccc3s2)n(C)n1` (stereo not shown), `COCCNc1nnc(C(=O)N2CCc3[nH]cnc3[C@@H]2c2nc3ccccc3s2)o1` (single isomer, unassigned) is higher in AC50: 1000 to 5000 nM for the first, over 5000 nM for the second.

Compared with `Cc1nnc(CN2CCc3[nH]cnc3C2c2nc3ccccc3[nH]2)s1` (stereo not shown), `Cc1nnc(CC(=O)N2CCc3[nH]cnc3[C@H]2c2nc3ccccc3s2)s1` (single isomer, unassigned) is lower in AC50: over 5000 nM for the first, 1000 to 5000 nM for the second.

`CNCc1ccc2c(C(=O)N3CCc4[nH]cnc4C3c3nc4ccccc4s3)cnn2c1` (stereo not shown) and `O=C(c1cnn2cc(Cl)ccc12)N1CCc2[nH]cnc2C1c1nc2ccc(F)cc2s1` (stereo not shown) cannot be ordered by AC50: over 5000 nM for the first, over 5000 nM for the second.
